Laboratory results as given in patent US20080226596A1, “Therapeutic compositions and methods useful in treating hepatitis” (priority 2006, published 2008).

What was measured:
WM9 cells = assay: WM9 melanoma cell growth, MTT assay; assay type: cell-based, human
Description: For cell proliferation assays, cells were grown in 10% FCS culture medium containing various amounts of IFNs and/or sodium stibogluconate in 96 well plates and cultured at 37° C. for 3 or 6 days as indicated. The numbers of viable cells in proliferation assays were determined by MTT assays as described in Phatak et al., J. Immunol. 167, 3391 (2001).
Dose response curves were generated for each drug alone, and also the combinations. Median effect plots were generated for IFNs alone, sodium stibogluconate alone, and the combination. The combination index (CI) was determined and plotted vs. fraction affected (FA). Data were analyzed in both modes, mutually exclusive and mutually nonexclusive. The interaction between two mutually nonexclusive drugs is described by the Equation CI=D1/Dx1+D2/Dx2+D1D2/Dx1Dx2, where Dx1 and Dx2 are the doses of drug 1 and drug 2 that are required to inhibit growth x %. […] When CI<1, drugs are synergistic, when CI=1, drugs are additive, and when CI>1, drugs are antagonistic.
Renca (Murphy, G. P., and W. J. Hrushesky. 1973. A murine renal cell carcinoma. J Natl Cancer Inst 50:1013), Jurkat (Gillis, S., and J. Watson. 1980. Biochemical and biological characterization of lymphocyte regulatory molecules. V. Identification of an interleukin 2-producing human leukemia T cell line. J Exp Med 152:1709) and WM9 (Forsberg, K., I. Valyi-Nagy, C. H. Heldin, M. Herlyn, and B. Westermark. 1993. Platelet-derived growth factor (PDGF) in oncogenesis: development of a vascular connective tissue stroma in xenotransplanted human melanoma producing PDGF-BB. Proc Natl Acad Sci USA 90:393) cell lines were obtained from a colleague at the Cleveland Clinic Foundation (CCF) and cultured in RPMI 1640 medium supplemented with 10% fetal calf serum (FCS). […] SSG has been described previously (Yi, T., M. K. Pathak, D. J. Lindner, M. E. Ketterer, C. Farver, and E. C. Borden. 2002. Anticancer activity of sodium stibogluconate in synergy with IFNs. J Immunol 169:5978).
NIH3T3 (Yi, et al., Blood 85, 87 (1995)), WM9 (Forsberg, et al., Proc. Nat. Acad Sci. USA 90, 393 (1993)), DU145 (Mickey, et al., Cancer Res. 37, 4049 (1977)), LoVo (Drewinko, et al., Cancer Res. 36, 467 (1976)), HEY (Buick, et al., Cancer Res. 45, 3668 (1985)), U251 (Yoshida, et al., Cancer 50, 410 (1982)), A549 (Giard, et al., J. Natl. Cancer Inst. 51, 1417 (1973)) and SK-N-SH (Helson, et al., Cancer Res. 35, 2594 (1975)) cell lines have been described and were cultured in RPMI 1640 supplemented with 10% fetal calf serum (FCS). For measurement of sodium stibogluconate effects on cell growth in vitro, cells were cultured in the absence (−) or presence (+) of various amounts of sodium stibogluconate for 6 days with viable cells quantified by MTT assays (Mosmann, J. Immunol. Methods 65, 55 (1983)). Percentages of growth inhibition by sodium stibogluconate were calculated (.+−.x

PRL-2 = target: T1, PRL-2 (Homo sapiens, UniProt Q12974); assay: In vitro PTPase assay, recombinant PRL-2; assay type: biochemical
T1 construct: GST (N); made in house; host or cells: DHSa (DH5a) bacteria
Source text: (§1) Sodium stibogluconate, suramin, sodium orthovanadate and GST fusion protein of SHP-1 have been described previously (Pathak et al., J. Imumol. 167, 3391 (2001)). Meglumine antimonate was obtained from Aventis. cDNAs of human PRL-1, PRL-2 and PRL-3 coding region were derived by RT-PCR from H9 cells (Safai, et al., Lancet 1, 1438 (1984)) and inserted in frame into the pGEX vector. cDNA of PRL-1R86 was generated by recombinant DNA technique using PRL-1 cDNA as template following established procedures (Jiao, et al., Mol. Cell. Biol. 16, 6985 (1996)). […]
(§2) In vitro PTPase assays were used to determine the effects of compounds on recombinant PTPases, following established procedures using a synthetic phosphotyrosine peptide or DiFMUP as the substrate (Pathak et al., J. Imumol. 167, 3391 (2001)). […] PTPase activity of individual reactions was measured by adding 100 µL of malachite green solution (UBI) and then quantifying the amounts of free phosphate cleaved by the PTPase from the peptide substrate by spectrometry (OD660 nm). […] Relative PTPase activities were calculated based on the formula: (PTPase activity in the presence of an inhibitory compound/PTPase activity in the absence of the compound)× 100%. […]

PRL-1 = target: T2, PRL-1 (Homo sapiens, UniProt Q93096); assay: In vitro PTPase assay, recombinant PRL-1; assay type: biochemical; conditions: 0.1-100 μg/ml
T2 construct: GST (N); made in house; host or cells: DHSa (DH5a) bacteria
Source text: as §1, §2

T1 sequence (Q12974 whole entry): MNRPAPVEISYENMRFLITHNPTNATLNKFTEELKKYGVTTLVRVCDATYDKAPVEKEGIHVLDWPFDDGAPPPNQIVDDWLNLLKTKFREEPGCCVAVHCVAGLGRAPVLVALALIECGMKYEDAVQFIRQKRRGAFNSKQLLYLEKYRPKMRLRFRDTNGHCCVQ
T2 sequence (Q93096 whole entry): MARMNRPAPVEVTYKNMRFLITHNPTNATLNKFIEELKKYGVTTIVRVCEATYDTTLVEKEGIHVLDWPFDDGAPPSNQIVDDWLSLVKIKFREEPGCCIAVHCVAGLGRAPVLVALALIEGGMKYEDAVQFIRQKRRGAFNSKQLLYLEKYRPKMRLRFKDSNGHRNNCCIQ

Row | SMILES | WM9 cell growth (WM9 cells; SSG, 6 days, comparable conditions to Renca) | killing of WM9 cells (WM9 cells; single agent, 50 and 100 μg/ml, day 6) | effect on IFN-alpha activity against WM9 (WM9 cells; ketoconazole 40 μg/ml) | activity against WM9 cells (WM9 cells; ketoconazole 0.625-20 μg/ml, single agent or with IFN-alpha) | effect against PRL-2 (PRL-2) | PRL-1 PTPase activity retained (PRL-1) | IFN-alpha-induced growth inhibition of WM9 with pentamidine (WM9 cells; most obviously at 0.625-1.25 μg/ml)
1 | O.O.O.O.O.O.O.O.O.O=C([O-])[C@@H]1[O][Sb]2([O-])([O][Sb]34([OH])[O][C@H]([C@H](O)CO)[C@H]([O]3)[C@H](C(=O)[O-])[O]4)[O][C@H]([C@H](O)CO)[C@@H]1[O]2.[Na+].[Na+].[Na+] [sodium stibogluconate] | inhibited by SSG in a dose-dependent manner | killed all cells |  |  |  |  | 
2 | CC(=O)N1CCN(c2ccc(OCC3COC(Cn4ccnc4)(c4ccc(Cl)cc4Cl)O3)cc2)CC1 (stereo not drawn) [ketoconazole] |  |  | minor augmenting effect on IFN-alpha activity | no apparent activity | not effective | 60-70% | 
3 | N=C(N)c1ccc(OCCCCCOc2ccc(C(=N)N)cc2)cc1 [pentamidine] |  |  |  |  | not effective | 70-80% | augmented IFN-alpha-induced growth inhibition
